The values that follow come from patent publication US20090208508A1, “NOVEL USE OF UBIQUITIN C-TERMINAL HYDROLASE-L1” (SK CORPORATION, priority 2005, published 2009).

The subject of series [1] is UCH-L1. Nature of the series: Western blotting of UCH-L1 expression in B16F10 stable cells expressing UCH-L1 specific RNAi (lentivirus). As to conditions: Zeocin-selected, in comparison with normal B16F10 cells and cells expressing irrelevant RNAi (SEQ ID No. 3). The series is classed as cell-based, mouse. As for the experimental part: The expression level of UCH-L1 in B16F10 mouse melanoma cell line was analyzed by using the Western blotting with anti-UCH-L1 antibody in comparison with that of H157 lung cancer cell line overexpressing UCH-L1. It was determined that UCH-L1 is expressed also in B16F10 cell lines.
B16F10 cells (2.5×10^5 cells, 70˜80% confluency) were seeded on the cell culture dish. After 24 h, these cells were infected with 1 mL of lentivirus (VCA™, Vectorcorea, Inc., Seoul, Korea) expressing irrelevant RNAi or UCH-L1 specific RNAi. 500 μL ( ? ) (virus titer 1[…]10^7 IFU/mL) of lentivirus expressing the sequence specific shRNAi (SEQ ID Nos. 3, 8, 9, and 10) was used for infection of 2.5×10^5 of B16F10 cells.
Polyburene ([…]) was added thereto, then the cell culture dish was shaken slowly up and down. After incubation for 6 h at 37[…] under 5% CO2, the virus soup was changed with the RPMI-1640 supplemented with 10% FBS. B16F10 cells were infected at twice with lentivirus on 24th hour after the first infection. However the incubation time for second infection was 12 h, not 6 h. After 24 h from the second infection, B16F 10 cells were harvested with trypsin and subcultured on the other dish by diluting the cells with RPMI-1640 (1/16 dilution).
After 24 h, cells were maintained with the cell culture media with 5 μg/mL of Zeocin. For about 14 days, the cell culture media was changed with fresh media containing same amount of Zeocin every three days. On 14th day after start of selection with Zeocin, only cells having the resistance to Zeocin were survival and these cells were infected with lentivirus stably expressing UCH-L1 specific RNAi (shRNAi, short hairpin RNA). On 14th day after start of selection with Zeocin, the colony was formed by the cells having the resistance to Zeocin. The colonized cells were selected and re-subcultured with fresh media. From this method, we could prepare UCH-L1 expression reduced stable cell lines. […]

In series [2] the test system is B16F10 mouse melanoma cells. Nature of the series: Experimental pulmonary metastasis: B16F10 stable cells injected into tail vein, black colonies on lung surface counted. It is filed as in vivo, BALB/C nude mouse. Particulars: 1x10^6 cells single-injected into tail vein, 14th day after injection, vs control B16F10 cells expressing irrelevant RNAi. As for the experimental part: We tried to elucidate whether UCH-L1 is a key target molecule related to cancer metastasis through the experimental metastasis using animal model. Normal B16F10 mouse melanoma cells are highly invasive and its first target organ in metastatic process is lung. Using lentivirus-based system, we prepared the B16F10 stable cells in which UCH-L1 was knock-downed.
After preparing B16F10 stable cells, we examined whether the metastasis to lung was decreased when the B16F 10 stable cells were injected intravenously into the tail vein.
As stated above, after the UCH-L1 expression knock-downed B 16F 10 stable cells were selected with Zeocin, these cells (1[…]10^6 cells) were single-injected into the tail vein of BALB/C nude mouse. On 14th day after injection, the metastasis to lung was investigated. (For control set, BALB/C mouse were injected with same amount of B16F10 stable cells expressing irrelevant RNAi (control lentiviral vector))

The test system of series [3] is UCH-L1. Briefly: Preliminary experiments: UCH-L1 expression level with siRNA on human-base sequences. It is filed as cell-based.
Series [4] has as its system UCH-L1. Nature of the series: Preliminary experiments: UCH-L1 expression level with siRNA on mouse-base sequences. It is filed as cell-based.

As to “ha: UCH-L1 specific shRNAi (SEQ ID No. 8), target sequence common to human and mouse, expressed by lentivirus (guide CCCGAGATGCTGAACAAAG; listed as Homo sapiens)”, the “expression of UCH-L1 (Western blotting)” value in the series on UCH-L1 [1] is reported as “reduced”. For the same substance, in series [2], the “reduction of metastasis to lung (black spherical colonies on lung surface)” value was 92%. The “expression level of UCH-L1” value with UCH-L1 [3] and in the series on UCH-L1 [4] was “effectively reduced” in each case.
With “ma: UCH-L1 specific shRNAi (SEQ ID No. 9), mouse target sequence, expressed by lentivirus (guide AGCTGAAGCCGATGGAGATTA; listed as Mus musculus)”, in the series on UCH-L1 [1], the “expression of UCH-L1 (Western blotting)” value was “not reduced”.
As for “mb: UCH-L1 specific shRNAi (SEQ ID No. 10), mouse target sequence, expressed by lentivirus (guide CCTAAAGTTTACTTCATGAAG; listed as Mus musculus)”, in the series on UCH-L1 [1], the “expression of UCH-L1 (Western blotting)” value is reported as “reduced”. In addition, the “reduction of metastasis to lung (black spherical colonies on lung surface)” value in series [2] is given as 62%. For the same substance, the “expression level of UCH-L1” value in the series on UCH-L1 [4] was “effectively reduced”.
